From patent publication US4992469A, “Method of obtaining an antiplatelet effect” (Eisai Co., Ltd., priority 1984, dated 1991)
Like-named read-outs stand apart in the source and are kept apart here.

Key:
[1] = system: human platelets; assay: Repression of human platelet agglutination in vitro (PRP; PAF, collagen or ADP as inducer); assay type: cell-based; settings: for inhibition at 100 µM: test compound 100 μM; for inhibition at 200 µM: test compound 200 μM; for inhibition at 50 µM: test compound 50 μM; for inhibition at 20 µM: test compound 20 μM
Protocol: Effects of repressing human platelet agglutination of the compounds of the present invention were examined in vitro. Platelet agglutination test was carried out in the following manner with the use of PAF (platelet activating factor; 1-alkyl-2-acetyl-sn-glycero-3-phosphocholine), collagen and ADP as inducers.
Blood was collected from the venae brachiales of a healthy adult in an amount of nine parts by volume to one part by volume of a 3.8% sodium citrate solution. The blood was centrifuged at 100 ×g for eight min and PRP separated as the supernatant was collected.
To 0.2 ml of the PRP as prepared above, 25 μl portions of test solutions in various concentrations were added and each mixture was incubated at 37° C. for three min. 25 μl of the abovementioned inducer solution was added thereto to induce agglutination. PAF, collagen and ADP were added as inducers to the final concentrations of 100 ng/ml, 1 μg/ml and 5 μM, respectively. Platelet agglutination was determined with an aggregometer (a product of Niko Bioscience Co., Ltd.) by the method of Mustard et al. (cf. Mustard, J.F., Hegaldt, B., Rosewell, H.C., MacMillan, R.C., J. Lab. Clin. Med., 64, 548-559 (1964)). The repressing effect of each test compound was evaluated as the repression ratio with the use of PRP containing vehicle as control.
(3) The following compounds were tested. Compounds A to D are as defined in Experimental Example 1. [drawing 18]
Each figure in Table 2 represents the repression ratio (%) of the corresponding compound.

[2] = system: Phospholipase A2; assay: Phospholipase A2 inhibition (myristic acid liberated from myristyllecithin, HPLC); assay type: biochemical
Protocol: Prior to the determination of the activity of phospholipase A by determining myristic acid liberated from a substrate (myristyllecithin) by said enzyme by high-performance liquid chromatography, the following test compounds were added in amounts as shown in Table 1 to examine the effects thereof.
CoQ10 was employed for the purpose of comparison. [drawing 17]
Each value in Table 1 represents the evaluation of the corresponding compound assuming the value of a physiological saline solution as 100 and indicates the phospholipase A2 inhibition activity thereof.

[3] = inducer ADP 5 μM, read-out: repression ratio of platelet agglutination, ADP
[4] = inducer PAF 100 ng/ml, read-out: repression ratio of platelet agglutination, PAF
[5] = inducer collagen 1 μg/ml, read-out: repression ratio of platelet agglutination, Collagen

| Compound | inhibition at 100 µM [1, 3] | inhibition at 200 µM [1, 3] | inhibition at 50 µM [1, 4] | inhibition at 100 µM [1, 4] | inhibition at 200 µM [1, 4] | inhibition at 20 µM [1, 5] | inhibition at 100 µM [1, 5] | Phospholipase A activity (physiological saline = 100) ([2]; final concentration 4 μM) | inhibition at 20 µM [1, 3] | inhibition at 50 µM [1, 3] | inhibition at 20 µM [1, 4] | Phospholipase A activity (physiological saline = 100) ([2]; final concentration 43 μM) |
| --- | --- | --- | --- | --- | --- | --- | --- | --- | --- | --- | --- | --- |
| COc1c(O)c(C)c(C/C=C(\C)CC/C=C(\C)CC/C=C(\C)CC/C=C(\C)CC/C=C(\C)C(=O)O)c(OC)c1OC [Compound F] | 6.7% | 26.3% | 5.9% | 9.3% | 49% | 5% | 15.8% | – | – | – | – | – |
| COc1c(O)c(C)c(C/C=C(\C)CC/C=C(\C)CC/C=C(\C)CC/C=C(\C)C(=O)O)c(OC)c1OC [Compound B] | 21.5% | 24.2% | 36.8% | 38.4% | 51.6% | 21.4% | 69.6% | 55% | 12.9% | 24.8% | 21.6% | – |
| COC1=C(OC)C(=O)C(C/C=C(\C)CC/C=C(\C)CC/C=C(\C)CC/C=C(\C)CC/C=C(\C)C(=O)O)=C(C)C1=O [Compound I] | 3.9% | 22% | 3.9% | 10.8% | 53.3% | – | 24.1% | – | – | – | 2.8% | – |
| COc1c(O)c(C)c(C/C=C(\C)CC/C=C(\C)C(=O)O)c(OC)c1OC [Compound E] | 10.7% | 23% | 28.1% | 32.5% | 45.4% | 45.4% | 75.8% | – | – | – | 3.03% | – |
| COC1=C(OC)C(=O)C(C/C=C(\C)CC/C=C(\C)CC/C=C(\C)C(=O)O)=C(C)C1=O [Compound C] | – | 18.3% | 3.4% | 12.2% | 47.3% | 3.2% | 17.2% | 25% | – | – | 3.5% | – |
| COC1=C(OC)C(=O)C(C/C=C(\C)CC/C=C(\C)CC/C=C(\C)CC/C=C(\C)CC/C=C(\C)CC/C=C(\C)CC/C=C(\C)CC/C=C(\C)CC/C=C(\C)CCC=C(C)C)=C(C)C1=O [CoQ10, Ubidecarenone, reference compound] | 8.7% | 11.3% | – | 16.2% | 19% | 6.5% | 18.7% | – | – | – | 8% | 56% |
| COc1c(O)c(C)c(C/C=C(\C)CC/C=C(\C)CC/C=C(\C)C(=O)O)c(OC)c1OC [Compound D] | 13.5% | 21.3% | 23.8% | 26% | 51.5% | 2.8% | 39.3% | 24% | – | 9% | 4.5% | – |
| COC1=C(OC)C(=O)C(C/C=C(\C)CC/C=C(\C)CC/C=C(\C)CC/C=C(\C)CC/C=C(\C)CC/C=C(\C)C(=O)O)=C(C)C1=O [Compound J] | 27.1% | 30.1% | 2.7% | 24.9% | 65.3% | – | 22% | – | – | 16.5% | 6% | – |
| COC1=C(OC)C(=O)C(C/C=C(\C)CC/C=C(\C)C(=O)O)=C(C)C1=O [Compound H] | 8.8% | 18.2% | 28.2% | 37.8% | 47.3% | 38.1% | 84.3% | – | – | – | 8.8% | – |
| COc1c(O)c(C)c(C/C=C(\C)CC/C=C(\C)CC/C=C(\C)CC/C=C(\C)CC/C=C(\C)CC/C=C(\C)C(=O)O)c(OC)c1OC [Compound G] | 14% | 23.1% | 8.1% | 12.8% | 59.8% | – | 30.2% | – | – | – | – | – |
| COC1=C(OC)C(=O)C(C/C=C(\C)CC/C=C(\C)CC/C=C(\C)CC/C=C(\C)C(=O)O)=C(C)C1=O [Compound A] | 22.1% | 23.1% | 36% | 42.6% | 52.9% | 62.4% | 86.6% | 66% | 12.4% | 2.1% | 27.8% | – |
